Experimental data reported in patent US12064437B2, “Methods for treating systemic lupus erythematosus and the use of biomarkers as a predictor of clinical sensitivity to therapies” (CELGENE CORPORATION, priority 2020, dated 2024).

Assays:
Assay type in all cases: in vivo, human
[1] = test system: subjects with active autoantibody-positive SLE; test: Phase 2b study in SLE: SLE Responder Index 4 (SRI-4) response at week 24; details: for SRI(4) at Week 24, Stratified Difference (%) (95% CI), Iberdomide - Placebo / Percentage of Subjects Who Achieve SRI(4) at Week 24, n/m (%): ITT
Method: (§1) The pharmacokinetics, pharmacodynamics (PD), efficacy, and safety of oral iberdomide ((S)-3-[4-({4-[(morpholin-4-yl)methyl]phenyl}methoxy)-1-oxo-1,3-dihydro-2H-isoindol-2-yl]piperidine-2,6-dione-hydrogen chloride (1/1)) were evaluated in a phase 2b study in subjects with active autoantibody-positive SLE.
(§2) Adult SLE patients (N=288) with a ≥6-month history of SLE and SLE Disease Activity Index (SLEDAI 2K) ≥6 were randomized to placebo (n=83) or iberdomide 0.15 mg QD (n=42), 0.3 mg QD (n=82), or 0.45 mg QD (n=81). Clinical response was determined by the SLE Responder Index 4 (SRI-4) at week 24 for all patients and within pre-specified biomarker-enriched subsets based on expression of Ikaros, Aiolos, the Type 1 IFN signature (IFI27, IFI44, IFI44L, RSAD2), and other gene modules measured from fingerstick blood collected at baseline (Modular Immune Profile Test, DxTerity Diagnostics, Inc.). The primary objective of the study was to evaluate the clinical efficacy of 3 doses of iberdomide (0.45 mg once per day [QD], 0.30 mg QD, or 0.15 mg QD) compared to placebo, for the treatment of active SLE using the SLE Responder Index at Week 24.

[2] = test system: subjects with active autoantibody-positive SLE; test: Phase 2b study in SLE: BILAG-Based Combined Lupus Assessment (BICLA) response
Method: as §1, §2
The treatment comparison with placebo (33.3%) for BICLA was larger in the subgroup of subjects with baseline IKZF3 high, but only for 0.45 mg QD iberdomide (52.0%) and 0.15 mg QD iberdomide (41.7%).

[3] = test system: subjects with active autoantibody-positive SLE; test: Phase 2b study in SLE: improvement of ≥50% from baseline in CLASI activity score; details: for percentage of subjects with improvement of ≥50% from baseline in CLASI activity score: baseline CLASI ≥8, Week 24
Method: as §1, §2
CLASI activity score at Week 24 was analyzed. Results for improvement of ≥50% from baseline in CLASI activity score at Week 24 were observed. Results are described as follows for overall subjects at each time point and for subgroups based on baseline characteristics and on mRNA and DNA expression as follows: […]

[4] = T cell Exhaustion: Low at baseline, 0.15 mg QD
[5] = T cell Exhaustion: Low at baseline, 0.30 mg QD
[6] = T cell Exhaustion: Low at baseline, 0.45 mg QD
[7] = Type 1 IFN: High at baseline, 0.15 mg QD
[8] = Type 1 IFN: High at baseline, 0.30 mg QD
[9] = Type 1 IFN: High at baseline, 0.45 mg QD

In the case of `O=C1CC[C@H](N2Cc3c(OCc4ccc(CN5CCOCC5)cc4)cccc3C2=O)C(=O)N1` [iberdomide, (S)-3-[4-({4-[(morpholin-4-yl)methyl]phenyl}methoxy)-1-oxo-1,3-dihydro-2H-isoindol-2-yl]piperidine-2,6-dione-hydrogen chloride (1/1)], the “SRI(4) at Week 24, Stratified Difference (%) (95% CI), Iberdomide - Placebo” value ([1]; Overall Subjects, 0.30 mg QD, listed as Iberdomide) is reported as 5.0 (−9.77, 19.48) %, the “SRI(4) at Week 24, Stratified Difference (%) (95% CI), Iberdomide - Placebo” value ([1]; Overall Subjects, 0.45 mg QD) is reported as 19.4% and the “Percentage of Subjects Who Achieve SRI(4) at Week 24, n/m (%)” value (“Percentage … (%)” below) ([1]; Overall Subjects, 0.45 mg QD, nonresponder imputation) is reported as 54.3%. For the same compound, the “Percentage … (%)” value ([1]; Overall Subjects, 0.45 mg QD, nonresponder imputation, listed as Iberdomide) was 44/81 (54.3) %, the “SRI(4) at Week 24, Stratified Difference (%) (95% CI), Iberdomide - Placebo” value ([1]; Overall Subjects, 0.45 mg QD, listed as Iberdomide) was 19.4 (4.12, 33.42) % and the “Percentage … (%)” value [1, 4] was 13/29 (44.8) %. The “SRI(4) at Week 24, Stratified Difference (%) (95% CI), Iberdomide - Placebo” value [1, 4] was 5.4 (−15.51, 26.63) %, the “Percentage … (%)” value [1, 5] was 28/65 (43.1) % and the “SRI(4) at Week 24, Stratified Difference (%) (95% CI), Iberdomide - Placebo” value [1, 5] was 4.7 (−12.69, 21.53) %. The “Percentage … (%)” value [1, 6] was 39/66 (59.1) %, the “SRI(4) at Week 24, Stratified Difference (%) (95% CI), Iberdomide - Placebo” value [1, 6] was 21.9 (4.30, 37.77) % and the “Percentage … (%)” value [1, 7] was 15/25 (60.0) %. For the same compound, the “SRI(4) at Week 24, Stratified Difference (%) (95% CI), Iberdomide - Placebo” value [1, 7] was 25.6%, the “SRI(4) at Week 24, Stratified Difference (%) (95% CI), Iberdomide - Placebo” value ([1]; Type 1 IFN: High at baseline, 0.15 mg QD, listed as Iberdomide) was 25.6 (1.54, 46.35) % and the “Percentage … (%)” value [1, 8] was 21/49 (42.9) %. For the same compound, the “SRI(4) at Week 24, Stratified Difference (%) (95% CI), Iberdomide - Placebo” value [1, 8] was 10.6 (−8.93, 29.11) %, the “Percentage … (%)” value [1, 9] was 34/57 (59.6) % and the “SRI(4) at Week 24, Stratified Difference (%) (95% CI), Iberdomide - Placebo” value [1, 9] was 26.8%. The “SRI(4) at Week 24, Stratified Difference (%) (95% CI), Iberdomide - Placebo” value ([1]; Type 1 IFN: High at baseline, 0.45 mg QD, listed as Iberdomide) was 26.8 (7.49, 43.54) %, the SRI-4 clinical efficacy ([1]; double-negative IFN Low Aiolos Low population, week 24) was “no clinical efficacy” and the “percentage of subjects who achieved BICLA response at Week 24” value ([2]; baseline IKZF3 high, 0.15 mg QD) was 41.7%. For the same compound, the “percentage of subjects who achieved BICLA response at Week 24” value ([2]; baseline IKZF3 high, 0.45 mg QD) was 52.0%, the “BICLA response at Week 24, stratified difference from placebo” value ([2]; overall subjects with baseline BILAG 2004 1A or 2B scores, 0.15 mg QD) was 0.3% and the “percentage of subjects who achieved BICLA response at Week 24” value ([2]; overall subjects with baseline BILAG 2004 1A or 2B scores, 0.15 mg QD, NRI, ITT) was 37.1%. The “BICLA response at Week 24, stratified difference from placebo” value ([2]; overall subjects with baseline BILAG 2004 1A or 2B scores, 0.30 mg QD) was −3.6%, the “percentage of subjects who achieved BICLA response at Week 24” value ([2]; overall subjects with baseline BILAG 2004 1A or 2B scores, 0.30 mg QD, NRI, ITT) was 33.3% and the “BICLA response at Week 24, stratified difference from placebo” value ([2]; overall subjects with baseline BILAG 2004 1A or 2B scores, 0.45 mg QD) was 1.0%. The “percentage of subjects who achieved BICLA response at Week 24” value ([2]; overall subjects with baseline BILAG 2004 1A or 2B scores, 0.45 mg QD, NRI, ITT) was 37.3%, the “improvement of ≥50% from baseline in CLASI activity score, stratified difference from placebo” value ([3]; 0.45 mg QD, Week 8, ITT population using NRI) was 14.3% and the “improvement of ≥50% from baseline in CLASI activity score, stratified difference from placebo” value ([3]; 0.45 mg QD, Week 12, ITT population using NRI) was 12.2%. The “improvement of ≥50% from baseline in CLASI activity score, stratified difference from placebo” value ([3]; 0.45 mg QD, Week 16, ITT population using NRI) was 18.2%, the “improvement of ≥50% from baseline in CLASI activity score, stratified difference from placebo” value ([3]; 0.45 mg QD, Week 20, ITT population using NRI) was 12.3% and the “percentage of subjects with improvement of ≥50% from baseline in CLASI activity score” value ([3]; IKZF3 high, 0.15 mg QD) was 50.0%. The “percentage of subjects with improvement of ≥50% from baseline in CLASI activity score” value ([3]; IKZF3 high, 0.30 mg QD) was 33.3%, the “percentage of subjects with improvement of ≥50% from baseline in CLASI activity score” value ([3]; IKZF3 high, 0.45 mg QD) was 77.8% and the “percentage of subjects with improvement of ≥50% from baseline in CLASI activity score” value ([3]; Ikaros IFN module high, 0.15 mg QD) was 54.5%. The “percentage of subjects with improvement of ≥50% from baseline in CLASI activity score” value ([3]; Ikaros IFN module high, 0.30 mg QD) was 52.4%, the “percentage of subjects with improvement of ≥50% from baseline in CLASI activity score” value ([3]; Ikaros IFN module high, 0.45 mg QD) was 63.6% and the “percentage of subjects with improvement of ≥50% from baseline in CLASI activity score” value ([3]; Type 1 IFN module high, 0.15 mg QD) was 66.7%. The “percentage of subjects with improvement of ≥50% from baseline in CLASI activity score” value ([3]; Type 1 IFN module high, 0.30 mg QD) was 52.4%, the “percentage of subjects with improvement of ≥50% from baseline in CLASI activity score” value ([3]; Type 1 IFN module high, 0.45 mg QD) was 61.9% and the “improvement of ≥50% from baseline in CLASI activity score, stratified difference from placebo” value ([3]; baseline CLASI activity score ≥8, 0.15 mg QD, Week 16) was 10.6%. The “improvement of ≥50% from baseline in CLASI activity score, stratified difference from placebo” value ([3]; baseline CLASI activity score ≥8, 0.15 mg QD, Week 20) was 35.3%, the “improvement of ≥50% from baseline in CLASI activity score, stratified difference from placebo” value ([3]; baseline CLASI activity score ≥8, 0.30 mg QD, Week 8) was 23.6% and the “improvement of ≥50% from baseline in CLASI activity score, stratified difference from placebo” value ([3]; baseline CLASI activity score ≥8, 0.30 mg QD, Week 16) was 3.1. The “improvement of ≥50% from baseline in CLASI activity score, stratified difference from placebo” value ([3]; baseline CLASI activity score ≥8, 0.45 mg QD, Week 4) was 32.0% and the “improvement of ≥50% from baseline in CLASI activity score, stratified difference from placebo” value ([3]; baseline CLASI activity score ≥8, 0.45 mg QD, Week 16) was 9.4%.
